Data published in US20260042731A1, “(2,4-DICHLOROPHENOXY)ACETIC ACID ANALOGS” (CORTEVA AGRISCIENCE LLC, priority 2022, published 2026).
Read-outs that look alike come from different tables or passages of the source.

Experiments:
[1] = tested on: Amaranthus rudis (AMATA), tall water hemp; assay: Postemergence herbicide evaluation, growth of Amaranthus rudis (AMATA); type: in vivo; conditions: Amaranthus tuberculatus, post-emergence, percent reduction in plant size relative to untreated control, read-out: Ave. AMATA; for pest or weed control at 280 g/ha: 280 g ae/ha; for pest or weed control at 560 g/ha: 560 g ae/ha
[2] = tested on: Ambrosia artemisiifolia (AMBEL), common ragweed; assay: Postemergence herbicide evaluation, growth of Ambrosia artemisiifolia (AMBEL); type: in vivo; conditions: Ambrosia artemisiifolia, post-emergence, percent reduction in plant size relative to untreated control, read-out: AVE. AMBEL; for pest or weed control at 280 g/ha: 280 g ae/ha; for pest or weed control at 560 g/ha: 560 g ae/ha
[3] = tested on: Abutilon theophrasti (ABUTH), velvetleaf; assay: Postemergence herbicide evaluation, growth of Abutilon theophrasti (ABUTH); type: in vivo; conditions: Abutilon theophrasti, post-emergence, percent reduction in plant size relative to untreated control, read-out: AVE. ABUTH; for pest or weed control at 280 g/ha: 280 g ae/ha; for pest or weed control at 560 g/ha: 560 g ae/ha
[4] = tested on: Chenopodium album (CHEAL), common lambsquarters; assay: Postemergence herbicide evaluation, growth of Chenopodium album (CHEAL); type: in vivo; conditions: Chenopodium album, post-emergence, percent reduction in plant size relative to untreated control, read-out: Ave. CHEAL; for pest or weed control at 280 g/ha: 280 g ae/ha; for pest or weed control at 560 g/ha: 560 g ae/ha
[5] = tested on: glyphosate resistant Conyza canadensis (L.) (ERICA), horseweed; assay: Postemergence herbicide evaluation, growth of Conyza canadensis (ERICA); type: in vivo; conditions: Erigeron canadensis, post-emergence, percent reduction in plant size relative to untreated control, read-out: Ave. ERICA; for pest or weed control at 280 g/ha: 280 g ae/ha; for pest or weed control at 560 g/ha: 560 g ae/ha
[6] = Volatility of compounds measured by thermogravimetric analysis (TGA); type: physicochemical
[7] = tested on: weeds (ABUTH, AMATA, AMBEL, CHEAL, ERICA); assay: Postemergence herbicide evaluation, overall average % weed control across ABUTH, AMATA, AMBEL, CHEAL, ERICA; type: in vivo; conditions: post-emergence, average over the five weeds, read-out: Overall Ave % Weed Control; for pest or weed control at 280 g/ha: 280 g ae/ha; for pest or weed control at 560 g/ha: 560 g ae/ha

SMILES	pest or weed control at 280 g/ha ([1]; 168 h, 7 DAA) [%]	pest or weed control at 560 g/ha ([1]; 168 h, 7 DAA) [%]	pest or weed control at 280 g/ha ([1]; 336 h, 14 DAA) [%]	pest or weed control at 560 g/ha ([1]; 336 h, 14 DAA) [%]	pest or weed control at 280 g/ha ([1]; 504 h, 21 DAA) [%]	pest or weed control at 560 g/ha ([1]; 504 h, 21 DAA) [%]	pest or weed control at 280 g/ha ([2]; 168 h, 7 DAA) [%]	pest or weed control at 560 g/ha ([2]; 168 h, 7 DAA) [%]	pest or weed control at 280 g/ha ([2]; 336 h, 14 DAA) [%]	pest or weed control at 560 g/ha ([2]; 336 h, 14 DAA) [%]	pest or weed control at 280 g/ha ([2]; 504 h, 21 DAA) [%]	pest or weed control at 560 g/ha ([2]; 504 h, 21 DAA) [%]	pest or weed control at 280 g/ha ([3]; 168 h, 7 DAA) [%]	pest or weed control at 560 g/ha ([3]; 168 h, 7 DAA) [%]	pest or weed control at 280 g/ha ([3]; 336 h, 14 DAA) [%]	pest or weed control at 560 g/ha ([3]; 336 h, 14 DAA) [%]	pest or weed control at 280 g/ha ([3]; 504 h, 21 DAA) [%]	pest or weed control at 560 g/ha ([3]; 504 h, 21 DAA) [%]	pest or weed control at 280 g/ha ([4]; 168 h, 7 DAA) [%]	pest or weed control at 560 g/ha ([4]; 168 h, 7 DAA) [%]	also measured
O=C(COc1ccc(Cl)cc1Cl)ON(Cc1ccccc1)Cc1ccccc1 [Compound A14, N, N-Dibenzyl-O-(2-(2,4-dichlorophenoxy)acetyl)hydroxylamine]	63	55	50	48	53	43	50	40	63	50	58	33	38	28	23	20	13	15	60	58	pest or weed control at 280 g/ha ([4]; 336 h, 14 DAA): 68%; pest or weed control at 560 g/ha ([4]; 336 h, 14 DAA): 63%; pest or weed control at 280 g/ha ([4]; 504 h, 21 DAA): 70%; pest or weed control at 560 g/ha ([4]; 504 h, 21 DAA): 63%; pest or weed control at 280 g/ha ([5]; 168 h, 7 DAA): 43%; pest or weed control at 560 g/ha ([5]; 168 h, 7 DAA): 40%; pest or weed control at 280 g/ha ([5]; 336 h, 14 DAA): 50%; pest or weed control at 560 g/ha ([5]; 336 h, 14 DAA): 50%; pest or weed control at 280 g/ha ([5]; 504 h, 21 DAA): 43%; pest or weed control at 560 g/ha ([5]; 504 h, 21 DAA): 40%; TGA Data (rate of weight loss, volatility) ([6]; 70° C.): 0.4 (70° C.) μg/min; pest or weed control at 280 g/ha ([7]; 168 h, 7 DAA): 51%; pest or weed control at 560 g/ha ([7]; 168 h, 7 DAA): 44%; pest or weed control at 280 g/ha ([7]; 336 h, 14 DAA): 51%; pest or weed control at 560 g/ha ([7]; 336 h, 14 DAA): 46%; pest or weed control at 280 g/ha ([7]; 504 h, 21 DAA): 47%; pest or weed control at 560 g/ha ([7]; 504 h, 21 DAA): 39%
O=C(COc1ccc(Cl)cc1Cl)ON1C(=O)c2ccccc2C1=O [Compound A15, 1,3-Dioxoisoindolin-2-yl 2-(2,4-dichlorophenoxy)acetate]	73	73	82	78	84	83	73	75	95	88	98	95	78	85	83	95	88	99	68	70	pest or weed control at 280 g/ha ([4]; 336 h, 14 DAA): 73%; pest or weed control at 560 g/ha ([4]; 336 h, 14 DAA): 70%; pest or weed control at 280 g/ha ([4]; 504 h, 21 DAA): 80%; pest or weed control at 560 g/ha ([4]; 504 h, 21 DAA): 75%; pest or weed control at 280 g/ha ([5]; 168 h, 7 DAA): 68%; pest or weed control at 560 g/ha ([5]; 168 h, 7 DAA): 65%; pest or weed control at 280 g/ha ([5]; 336 h, 14 DAA): 78%; pest or weed control at 560 g/ha ([5]; 336 h, 14 DAA): 88%; pest or weed control at 280 g/ha ([5]; 504 h, 21 DAA): 88%; pest or weed control at 560 g/ha ([5]; 504 h, 21 DAA): 95%; TGA Data (rate of weight loss, volatility) [6]: 0.1 µg/min; pest or weed control at 280 g/ha ([7]; 168 h, 7 DAA): 72%; pest or weed control at 560 g/ha ([7]; 168 h, 7 DAA): 74%; pest or weed control at 280 g/ha ([7]; 336 h, 14 DAA): 82%; pest or weed control at 560 g/ha ([7]; 336 h, 14 DAA): 84%; pest or weed control at 280 g/ha ([7]; 504 h, 21 DAA): 87%; pest or weed control at 560 g/ha ([7]; 504 h, 21 DAA): 89%
